# Data: patent US20240382483A1, “HETEROCYCLIC EGFR INHIBITORS FOR USE IN THE TREATMENT OF CANCER” (Blueprint Medicines Corporation, priority 2021, published 2024)
# Tests used:
# EGFR (L858R T790M C797S) = target: T1, EGFR (L858R T790M C797S) (Homo sapiens, UniProt P00533, C797S/L858R/T790M); test: Biochemical EGFR inhibition assay (Caliper mobility shift), EGFR LRTMCS; details: LRTMCS (PH) IC50 (nM) @ 1 mM ATP (Num), EGFR LRTMCS mutant
# T1 construct: purchased SignalChem E10-122VG
# Summary of the method: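 Apparent IC50s were derived by plotting percent activity against the log of compound concentration. Activity was measured as phosphopeptide electrophoretically separated from substrate, after reactions at room temperature reached 10% to 20% phosphorylation and were halted with 35 mM EDTA.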
# [1] = target: T2, intracellular phosphorylation of EGFR in NCI-H1975 cell line that harbors the EGFR L858R T790M mutations (Homo sapiens, UniProt P00533, L858R/T790M); test: NCI-H1975 pEGFR AlphaLISA assay; type: cell-based; details: NCI-H1975 cells (EGFR L858R T790M), p-EGFR (Tyr1068), 4-5 hours incubation; read-out: Ext pEGFR H1975 GMean IC50 (nM) Protocol: @Pharmaron AlphaLISA (Num)
# T2 construct: NCI-H1975 cell line that harbors the EGFR L858R T790M mutations (ATCC, CRL-5908); host or cells: NCI-H1975
# T2 sequence (P00533 25-1210 T790M/L858R): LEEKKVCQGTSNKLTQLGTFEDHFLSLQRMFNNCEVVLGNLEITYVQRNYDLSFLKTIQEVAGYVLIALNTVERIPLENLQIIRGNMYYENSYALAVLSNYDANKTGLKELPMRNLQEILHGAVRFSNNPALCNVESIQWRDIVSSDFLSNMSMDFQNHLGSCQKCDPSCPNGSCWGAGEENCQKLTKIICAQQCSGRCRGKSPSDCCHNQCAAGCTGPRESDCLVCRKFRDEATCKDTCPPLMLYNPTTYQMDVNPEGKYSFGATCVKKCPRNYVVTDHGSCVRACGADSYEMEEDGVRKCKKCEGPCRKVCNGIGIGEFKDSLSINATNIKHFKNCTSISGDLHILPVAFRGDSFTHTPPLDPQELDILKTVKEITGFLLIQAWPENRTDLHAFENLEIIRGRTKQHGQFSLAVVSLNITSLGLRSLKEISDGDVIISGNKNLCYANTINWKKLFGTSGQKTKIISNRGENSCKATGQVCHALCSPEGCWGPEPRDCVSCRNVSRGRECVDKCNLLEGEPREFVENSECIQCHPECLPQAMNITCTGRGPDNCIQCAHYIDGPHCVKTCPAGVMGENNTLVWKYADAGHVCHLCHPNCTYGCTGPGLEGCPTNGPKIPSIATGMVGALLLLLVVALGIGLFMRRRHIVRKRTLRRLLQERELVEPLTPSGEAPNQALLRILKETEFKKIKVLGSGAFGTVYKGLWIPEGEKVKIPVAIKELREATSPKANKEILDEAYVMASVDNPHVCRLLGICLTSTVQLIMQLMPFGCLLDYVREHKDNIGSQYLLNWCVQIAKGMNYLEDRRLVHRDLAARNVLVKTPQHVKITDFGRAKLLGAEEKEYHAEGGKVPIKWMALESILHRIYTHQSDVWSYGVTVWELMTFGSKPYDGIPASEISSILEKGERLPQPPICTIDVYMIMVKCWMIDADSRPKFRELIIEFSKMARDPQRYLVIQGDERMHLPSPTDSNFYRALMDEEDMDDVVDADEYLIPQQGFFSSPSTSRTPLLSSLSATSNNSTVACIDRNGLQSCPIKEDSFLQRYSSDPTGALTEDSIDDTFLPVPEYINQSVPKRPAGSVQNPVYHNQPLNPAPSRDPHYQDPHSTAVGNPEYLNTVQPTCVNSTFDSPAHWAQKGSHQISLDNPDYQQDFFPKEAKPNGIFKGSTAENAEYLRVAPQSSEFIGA
# Method: On the next day, the test compounds and DMSO control were added into H1975 cell plate followed by incubation at 37C/5% CO2 for 4-5 hours. […] Then 5 μL of a donor bead mix was added to each well followed by overnight incubation at room temperature in dark. On the next day, the plate was read at a compatible plate reader to obtain pEGFR signal. Percent of pEGFR inhibition was plotted against log concentration of compounds to generate IC50 values.
# T1 sequence (P00533 25-1210 T790M/C797S/L858R): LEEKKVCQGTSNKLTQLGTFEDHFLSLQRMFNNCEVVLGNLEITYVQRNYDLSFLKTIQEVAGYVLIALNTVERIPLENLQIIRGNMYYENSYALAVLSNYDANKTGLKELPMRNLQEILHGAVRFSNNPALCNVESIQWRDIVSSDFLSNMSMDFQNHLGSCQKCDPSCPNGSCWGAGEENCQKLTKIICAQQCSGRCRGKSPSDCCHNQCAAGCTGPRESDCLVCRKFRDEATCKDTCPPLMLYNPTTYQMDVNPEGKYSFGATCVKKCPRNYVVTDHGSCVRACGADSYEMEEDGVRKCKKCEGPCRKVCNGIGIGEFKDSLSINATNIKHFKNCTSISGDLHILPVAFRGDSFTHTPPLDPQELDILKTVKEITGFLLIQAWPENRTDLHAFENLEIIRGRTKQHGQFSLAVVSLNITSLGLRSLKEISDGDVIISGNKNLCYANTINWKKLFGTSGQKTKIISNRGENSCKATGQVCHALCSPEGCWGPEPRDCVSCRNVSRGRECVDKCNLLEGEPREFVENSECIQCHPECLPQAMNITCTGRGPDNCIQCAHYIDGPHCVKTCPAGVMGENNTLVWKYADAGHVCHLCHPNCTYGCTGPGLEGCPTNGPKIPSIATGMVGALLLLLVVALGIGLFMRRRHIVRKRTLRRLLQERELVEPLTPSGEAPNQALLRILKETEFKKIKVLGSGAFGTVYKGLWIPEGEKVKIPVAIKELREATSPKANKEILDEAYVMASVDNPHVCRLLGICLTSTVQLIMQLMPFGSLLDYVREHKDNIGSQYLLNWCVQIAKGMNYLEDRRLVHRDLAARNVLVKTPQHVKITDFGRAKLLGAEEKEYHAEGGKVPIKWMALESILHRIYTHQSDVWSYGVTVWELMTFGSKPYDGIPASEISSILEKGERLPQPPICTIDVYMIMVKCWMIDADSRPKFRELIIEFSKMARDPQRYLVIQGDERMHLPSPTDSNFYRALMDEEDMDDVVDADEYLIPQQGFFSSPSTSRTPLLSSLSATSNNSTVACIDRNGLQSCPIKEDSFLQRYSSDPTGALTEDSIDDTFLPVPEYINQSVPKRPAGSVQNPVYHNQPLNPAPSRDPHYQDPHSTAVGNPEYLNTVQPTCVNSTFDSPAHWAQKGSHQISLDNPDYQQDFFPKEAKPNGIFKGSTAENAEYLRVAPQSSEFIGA
smiles,measurement,setting,value
"CO[C@@H]1CCN(c2nccc(Nc3cc4c(C(C)C)cnc(N5C[C@H](O)[C@H]5C)c4cn3)n2)C[C@@H]1O (single isomer, unassigned) [Example 122, (3S,4R)-1-(4-((8-((2R,3S)-3-hydroxy-2-methylazetidin-1-yl)-5-isopropyl-2,7-naphthyridin-3-yl)amino)pyrimidin-2-yl)-4-methoxypiperidin-3-ol or (3R,4S)-1-(4-((8-((2R,3S)-3-hydroxy-2-methylazetidin-1-yl)-5-isopropyl-2,7-naphthyridin-3-yl)amino)pyrimidin-2-yl)-4-methoxypiperidin-3-ol]",IC50,EGFR (L858R T790M C797S),< 15 nM
same,IC50,[1],10 to 20 nM
"COC(=O)NCC1CN(c2ncc(C(C)C)c3cc(Nc4ccnc(N5CC[C@@H](O)[C@@](C)(F)C5)n4)ncc23)C1 [Example 84, methyl ((1-(6-((2-((3S,4R)-3-fluoro-4-hydroxy-3-methylpiperidin-1-yl)pyrimidin-4-yl)amino)-4-isopropyl-2,7-naphthyridin-1-yl)azetidin-3-yl)methyl)carbamate]",IC50,EGFR (L858R T790M C797S),< 15 nM
same,IC50,[1],20 to 30 nM
"CC(C)c1cnc(N2CC(CCO)C2)c2cnc(Nc3ccnc(N4CC[C@@H](O)[C@@](C)(F)C4)n3)cc12 [Example 77, (3S,4R)-3-fluoro-1-(4-((8-(3-(2-hydroxyethyl)azetidin-1-yl)-5-isopropyl-2,7-naphthyridin-3-yl)amino)pyrimidin-2-yl)-3-methylpiperidin-4-ol]",IC50,EGFR (L858R T790M C797S),15 to 20 nM
same,IC50,[1],20 to 30 nM
"COC[C@@H]1CCN1c1ncc(C(C)C)c2cc(Nc3ccnc(N4CC[C@@H](O)[C@@](C)(F)C4)n3)ncc12 [Example 29, (3S,4R)-3-fluoro-1-(4-((5-isopropyl-8-((S)-2-(methoxymethyl)azetidin-1-yl)-2,7-naphthyridin-3-yl)amino)pyrimidin-2-yl)-3-methylpiperidin-4-ol]",IC50,EGFR (L858R T790M C797S),< 15 nM
same,IC50,[1],< 10 nM
"CC(C)c1ccc(N2CCC2)c2cnc(Nc3ccnc(N4CC[C@@H](O)[C@@](C)(F)C4)n3)cc12 [Example 110, (3S,4R)-1-(4-((8-(azetidin-1-yl)-5-isopropylisoquinolin-3-yl)amino)pyrimidin-2-yl)-3-fluoro-3-methylpiperidin-4-ol]",IC50,EGFR (L858R T790M C797S),30 to 100 nM
same,IC50,[1],> 50 nM
"COC[C@@H](C)c1cnc(N2CC[C@H]2C)c2cnc(Nc3ccnc(N4CC[C@@H](O)[C@@](C)(F)C4)n3)cc12 (single isomer, unassigned) [Example 216, (3S,4R)-3-fluoro-1-(4-((5-((S)-1-methoxypropan-2-yl)-8-((R)-2-methylazetidin-1-yl)-2,7-naphthyridin-3-yl)amino)pyrimidin-2-yl)-3-methylpiperidin-4-ol or (3S,4R)-3-fluoro-1-(4-((5-((R)-1-methoxypropan-2-yl)-8-((R)-2-methylazetidin-1-yl)-2,7-naphthyridin-3-yl)amino)pyrimidin-2-yl)-3-methylpiperidin-4-ol]",IC50,EGFR (L858R T790M C797S),15 to 20 nM
same,IC50,[1],20 to 30 nM
"CC(C)c1cnc(-c2ccn(C3COC3)n2)c2cnc(Nc3ccnc(N4CC[C@@H](O)[C@@](C)(F)C4)n3)cc12 [Example 21, (3S,4R)-3-fluoro-1-(4-((5-isopropyl-8-(1-(oxetan-3-yl)-1H-pyrazol-3-yl)-2,7-naphthyridin-3-yl)amino)pyrimidin-2-yl)-3-methylpiperidin-4-ol]",IC50,EGFR (L858R T790M C797S),< 15 nM
same,IC50,[1],> 50 nM
"CNCCO[C@H]1CCN(c2nccc(Nc3cc4c(C(C)C)cnc(N5CC[C@H]5C)c4cn3)n2)C[C@H]1F [Example 200, N-(2-((3R,4S)-3-fluoro-4-(2-(methylamino)ethoxy)piperidin-1-yl)pyrimidin-4-yl)-5-isopropyl-8-((R)-2-methylazetidin-1-yl)-2,7-naphthyridin-3-amine]",IC50,EGFR (L858R T790M C797S),< 15 nM
same,IC50,[1],< 10 nM
"CC(C)c1cnc(N2CCC(F)(F)C2)c2cnc(Nc3ccnc(N4CC[C@@H](O)[C@@](C)(F)C4)n3)cc12 [Example 57, (3S,4R)-1-(4-((8-(3,3-difluoropyrrolidin-1-yl)-5-isopropyl-2,7-naphthyridin-3-yl)amino)pyrimidin-2-yl)-3-fluoro-3-methylpiperidin-4-ol]",IC50,EGFR (L858R T790M C797S),< 15 nM
same,IC50,[1],20 to 30 nM
"CC(C)c1cnc(N2C[C@H](n3ccnn3)[C@H]2C)c2cnc(Nc3ccnc(N4CCC(C)(O)CC4)n3)cc12 [Example 130, 1-(4-((5-isopropyl-8-((2R,3S)-2-methyl-3-(1H-1,2,3-triazol-1-yl)azetidin-1-yl)-2,7-naphthyridin-3-yl)amino)pyrimidin-2-yl)-4-methylpiperidin-4-ol]",IC50,EGFR (L858R T790M C797S),15 to 20 nM
same,IC50,[1],20 to 30 nM
"CC(C)c1cnc(-c2nnc(C(C)(C)O)o2)c2cnc(Nc3ccnc(N4CC[C@@H](O)[C@@](C)(F)C4)n3)cc12 [Example 27, (3S,4R)-3-fluoro-1-(4-((8-(5-(2-hydroxypropan-2-yl)-1,3,4-oxadiazol-2-yl)-5-isopropyl-2,7-naphthyridin-3-yl)amino)pyrimidin-2-yl)-3-methylpiperidin-4-ol]",IC50,EGFR (L858R T790M C797S),< 15 nM
same,IC50,[1],> 50 nM
"CC(C)c1cnc(N2CC[C@H]2C)c2cnc(Nc3cnnc(N4CC[C@@H](O)[C@@](C)(F)C4)n3)cc12 (single isomer, unassigned) [Example 179, (3S,4R)-3-fluoro-1-(5-((5-isopropyl-8-((R)-2-methylazetidin-1-yl)-2,7-naphthyridin-3-yl)amino)-1,2,4-triazin-3-yl)-3-methylpiperidin-4-ol or (3R,4S)-3-fluoro-1-(5-((5-isopropyl-8-((R)-2-methylazetidin-1-yl)-2,7-naphthyridin-3-yl)amino)-1,2,4-triazin-3-yl)-3-methylpiperidin-4-ol]",IC50,EGFR (L858R T790M C797S),< 15 nM
same,IC50,[1],10 to 20 nM
"CC(C)c1ncc(-c2cn(C)nn2)c2cnc(Nc3ccnc(N4CC[C@@H](O)[C@@](C)(F)C4)n3)cc12 [Example 12, (3S,4R)-3-fluoro-1-(4-((5-isopropyl-8-(1-methyl-1H-1,2,3-triazol-4-yl)-2,6-naphthyridin-3-yl)amino)pyrimidin-2-yl)-3-methylpiperidin-4-ol]",IC50,EGFR (L858R T790M C797S),< 15 nM
same,IC50,[1],10 to 20 nM
"CC(C)c1cnc(N2C[C@@H](F)[C@H](F)C2)c2cnc(Nc3ccnc(N4CC[C@@H](O)[C@@](C)(F)C4)n3)cc12 (single isomer, unassigned) [Example 60, (3S,4R)-1-(4-((8-((3R,4R)-3,4-difluoropyrrolidin-1-yl)-5-isopropyl-2,7-naphthyridin-3-yl)amino)pyrimidin-2-yl)-3-fluoro-3-methylpiperidin-4-ol or (3S,4R)-1-(4-((8-((3S,4S)-3,4-difluoropyrrolidin-1-yl)-5-isopropyl-2,7-naphthyridin-3-yl)amino)pyrimidin-2-yl)-3-fluoro-3-methylpiperidin-4-ol]",IC50,EGFR (L858R T790M C797S),< 15 nM
same,IC50,[1],10 to 20 nM
"[2H]C([2H])([2H])O[C@H]1CN(c2ncc(C(C)C)c3cc(Nc4ccnc(N5CC[C@@H](O)[C@@](C)(F)C5)n4)ncc23)[C@@H]1C [Example 108, (3S,4R)-3-fluoro-1-(4-((5-isopropyl-8-((2R,3S)-3-(methoxy-d3)-2-methylazetidin-1-yl)-2,7-naphthyridin-3-yl)amino)pyrimidin-2-yl)-3-methylpiperidin-4-ol]",IC50,EGFR (L858R T790M C797S),< 15 nM
same,IC50,[1],10 to 20 nM
"CC(C)c1ncc(-c2ccn(C)n2)c2cnc(Nc3ccnc(N4CC[C@@H](O)[C@@](C)(F)C4)n3)cc12 [Example 11, (3S,4R)-3-fluoro-1-(4-((5-isopropyl-8-(1-methyl-1H-pyrazol-3-yl)-2,6-naphthyridin-3-yl)amino)pyrimidin-2-yl)-3-methylpiperidin-4-ol]",IC50,EGFR (L858R T790M C797S),20 to 30 nM
same,IC50,[1],30 to 50 nM
